Experimental data taken from patent publication US10253255B2, “Phosphorescent nanoparticles and their uses in biosensing and bioimaging” (University of North Texas, priority 2015, dated 2019).

How the values were obtained:
[1] = test system: SNU-5 cells; assay: MTT cell viability (cytotoxicity); details: SNU-5 cell lines, buffered aqueous solution, FIG. 15
Protocol: SNU-5 cells were purchased from ATCC (cat. # CRL-5973) (American Type Culture Collection, Manassas, Va.), and maintained in Iscove's Modified Dulbecco's Medium (IMDM) (ATCC, cat. #30-2005) with 10% FBS (Fisherbrand Research Grade Fetal Bovine Serum, cat. #03-600-511) (Fisher Scientific UK Ltd., Loughborough). Cells (10,000/well) were seeded on 96-well plates and the desired particle amounts were added to the wells. The plates were incubated for an additional 24 h at 37° C. (5% CO2). After incubation, cell viability was evaluated using MTT. MTT dissolved in culture media (5 mg/mL) was added to each well (25 L/well). The cells were incubated for 4 h at 37° C. (5% CO2) after which time 0.08 M HCl in 2-propanol (100 L/well) was added. Light absorption was measured on a Synergy 2 multi-mode microplate reader (BioTek, Winooski, Vt.). The viability of the cells exposed to particles was expressed as a percentage of the viability of cells grown in the absence of particles on the same plate.
Cells were grown to ˜90% confluence in 96 well plate format in complete growth media containing 10% fetal bovine serum. PCHNPs or TPPTs in 0.1 wt % chitosan were dosed on cells at concentrations ranging from 0.5 to 200 μg/mL. Viability after 24 h of exposure was evaluated using MTT reagent and compared to healthy cells on the same plate. […]

[2] = target: T1, Bovine Serum Albumin (BSA) (Bos taurus, UniProt P02769); assay: Labelling of BSA with Pt—POP, absorbance after dialysis; assay type: binding; details: after 24 hours of dialysis
T1 construct: purchased Sigma-Aldrich
T1 sequence (P02769 25-607): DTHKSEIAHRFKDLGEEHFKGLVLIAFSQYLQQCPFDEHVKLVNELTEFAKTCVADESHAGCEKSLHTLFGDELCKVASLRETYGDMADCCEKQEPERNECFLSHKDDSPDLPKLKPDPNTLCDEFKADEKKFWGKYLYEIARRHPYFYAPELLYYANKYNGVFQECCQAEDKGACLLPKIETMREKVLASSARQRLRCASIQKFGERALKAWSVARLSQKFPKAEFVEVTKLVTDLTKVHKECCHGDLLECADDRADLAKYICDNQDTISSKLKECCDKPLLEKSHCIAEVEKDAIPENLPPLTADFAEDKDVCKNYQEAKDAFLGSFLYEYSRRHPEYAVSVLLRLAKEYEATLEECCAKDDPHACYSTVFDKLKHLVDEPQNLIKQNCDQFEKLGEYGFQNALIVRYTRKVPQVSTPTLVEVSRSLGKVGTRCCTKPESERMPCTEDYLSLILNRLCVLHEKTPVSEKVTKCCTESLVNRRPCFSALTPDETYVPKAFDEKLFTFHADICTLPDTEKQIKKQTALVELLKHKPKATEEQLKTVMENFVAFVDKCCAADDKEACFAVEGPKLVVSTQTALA
Source text: A common model protein (BSA=bovine serum albumin) was labeled with Pt—POP to enable BSA differentiation, with oxygen sensitivity, in biological media.

[3] = Storage and solution stability
[4] = In vitro hypoxia detection by Pt—POP (epi-fluorescence microscope); details: Pt—POP aqueous solution in a Petri dish
Source text: For identification of hypoxic environments, Pt—POP has been used. The efficiency of Pt—POP as an oxygen sensor is shown in FIG. 16, including its effective usage for live bioimaging applications. […] The progressive phosphorescence intensity signal increase immediately after oxygen levels are decreased below 20% for the Pt—POP aqueous solution in a Petri dish should be noted. Results for this sensor in conjunction with the excellent animal model for hypoxia, C. elegans worms, are shown in FIG. 17, whereas similar results in E. coli bacteria and in D. rerio zebra fish are shown in FIGS. 18 and 19, respectively. In FIG. 18, conditions were: 18A: E. coli bacteria with 64X, DIC; 18B: E. coli bacteria with 64X, 405-520,222 g, 0.4 ms; 18C: E. coli bacteria incubated with Pt—POP 64X, 405-520,222 g, 0.4 ms; 18D: E. coli bacteria incubated with Pt—POP on 8th day 64X, 405-520,222 g, 0.4 ms. In FIG. 19, pictures were taken for stationary fish directly after injection (A) and 7 minutes after induced hypoxia (B), and for a swimming fish (C).

Molecule | biological toxicity (MTT assay) [1] | absorbance of PBS control lower than BSA sample (binding to BSA) [2] | stability in solution ([3]; in presence of a biocompatible polymer such as chitosan or PAN) | stability in solution ([3]; without polymer) | oxygen level below which phosphorescence intensity signal increases [4]
Na8[Au(TPPTS)3] [AuP] | benign |  |  |  | 
M4[Pt2(P2O5H2)4].2H2O [Pt—POP] |  | approximately 10 times | dramatically enhanced from minutes to years | long-term instability | below 20%
O=S(=O)([O-])c1cccc(P(c2cccc(S(=O)(=O)[O-])c2)c2cccc(S(=O)(=O)[O-])c2)c1.[Na+].[Na+].[Na+] [TPPTS, 3,3′,3″-Phosphanetriyltris(benzenesulfonic acid) trisodium salt, reference compound] | benign |  |  |  | 
